Laboratory results as given in article PMC4954055, “A Self‐Assembled Respiratory Chain that Catalyzes NADH Oxidation by Ubiquinone‐10 Cycling between Complex I and the Alternative Oxidase” (Angewandte Chemie (International Ed. in English), 2015).

Molecular target: T1, alternative oxidase (AOX) (Trypanosoma brucei, UniProt Q26710)
T1 construct: single-subunit quinol oxidase reconstituted into proteoliposomes
Assay: coupled NADH:O2 oxidoreduction in CI/Q10/AOX proteoliposomes
Assay type: biochemical
Details: complex I rate determining; Q10H2 formed in the membrane by complex I

T1 sequence (Q26710 25-329): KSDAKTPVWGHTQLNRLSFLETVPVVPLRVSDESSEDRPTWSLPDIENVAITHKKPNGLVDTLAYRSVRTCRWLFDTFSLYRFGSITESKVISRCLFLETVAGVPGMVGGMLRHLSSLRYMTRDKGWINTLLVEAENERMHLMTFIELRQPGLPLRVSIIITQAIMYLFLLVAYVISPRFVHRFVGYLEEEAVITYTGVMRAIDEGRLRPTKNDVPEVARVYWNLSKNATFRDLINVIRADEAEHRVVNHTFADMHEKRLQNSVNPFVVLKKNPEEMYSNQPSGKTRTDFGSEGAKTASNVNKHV

## COc1c(O)c(C)c(C/C=C(\C)CC/C=C(\C)CC/C=C(\C)CC/C=C(\C)CC/C=C(\C)CC/C=C(\C)CC/C=C(\C)CC/C=C(\C)CC/C=C(\C)CCC=C(C)C)c(O)c1OC [Q10H2]
  coupled NADH:O2 oxidoreduction in CI/Q10/AOX proteoliposomes: AOX reoxidizes the Q10H2 and reduces O2 to H2O
